# Laboratory results reported in patent US20180264134A1, “A COMPOSITION OF GOLD NANOPARTICLES HAVING ANTIMICROBIAL PEPTIDES BOUND ON THEIR SURFACE FOR USE THE TREATMENT OF WOUND HEALING OR IN THE TREATMENT OF ISCHEMIC OR VASCULAR DISEASES OR IN THE TREATMENT OF SKIN DISORDERS” (priority 2015, published 2018).
# How the values were obtained:
# [1] = test system: HaCaT cells; assay: Whole-cell patch-clamp recordings of HaCaT cells; format: cell-based, human
# Protocol: In an embodiment, the NP bioactivity was carried out as follows: electrophysiological recordings. Whole-cell patch-clamp recordings of HaCaT cells were performed using borosilicate glass patch pipettes with a resistance of 2-5 MΩ and compensating the series resistance by 50-60% with a List EPC-7 amplifier, as described previously^56. The pipettes were filled with (in mM): 135 K-gluconate, 10 CsCl, 0.4 NaH2PO4, 0.73 CaCl2, 1 MgCl2, 1 EGTA, and 14 HEPES (pH 7.4). The external solution contained (mM): 140 NaCl, 3 KCl, 2 CaCl2, 1 MgCl2, 15 HEPES and 10 glucose (pH 7.4). Cells were rapidly perfused as previously described and all experiments were carried out at RT (22-25° C.). The currents were recorded at −70 mV, filtered (2-pole Butterworth filter, −12 dB/octave) and digitized to a personal computer at a sampling rate of 1 kHz for analysis using pCLAMP software (AXON instruments). Charge transfer was calculated by the integration of the area under the current in the first 100 s (Q100) from the beginning of the exposure to Au NPs, LL37 or LL37-Au NPs in the absence or presence of apyrase (darker background; 20 U/mL; Sigma).
# [2] = test system: ERK1/2; assay: ERK1/2 phosphorylation in HaCaT (ELISA); format: cell-based, human; conditions: LL37 5 μg/mL; LL37-Au NPs 200 μg/mL
# Protocol: In an embodiment the detection of EGFR and ERK1/2 phosphorylation, can be perform by: the activation of EGFR receptor in HaCaT (80% confluency, in 6-well plates) was induced by starving the cells for 24 h in DMEM supplemented with 1% (v/v) penicillin and adding soluble LL37, LL37-Au NPs and Au NPs for a given period of time. Following treatment, the plates were immersed in ice and the medium was discarded. Then the proteins were isolated from the cells . . . . The levels of EGFR (phosphorylated EGFR and total EGFR) were determined by ELISA kit (R&D Systems). The activation of ERK signaling pathways in HaCaT (80% confluency, in one 96-well cell culture clear-bottom black microplate) were obtained starving the cells for 24 h in DMEM supplemented with 1% (v/v) penicillin and then stimulating them with soluble LL37 (5 μg/mL), LL37-Au NPs and Au NPs (200 μg/mL). After treatments the level of ERK were determined using a phosphoprotein and total protein ELISA kit (R&D Systems ref. KCB1018) according to the manufacture's instructions. Data were acquired with a BioTek synergy MX microplate reader.
# [3] = test system: HUVECs; assay: Cytotoxicity in HUVECs (PI viability, ATP, ROS); format: cell-based
# Protocol: In an embodiment of the cytotoxicity studies in HUVECs and HaCaT may be seeded at a density of 1×10^4 and 2×10^4 cells per well respectively and cultured in a 96-well plate for 24 and then incubated with soluble LL37 (0.5, 1, 10, 30, 60 μg/mL), LL37 Au-NPs and AuNPs suspended in culture medium at different concentrations (25, 50, 100 and 200 μg/mL). After 5 and 24 h, CellTiter-Glo® Luminescent Cell Viability Assay (Promega) was used to assess the ATP production of the cells according to the supplier's instructions. For ROS quantification, cells were seeded at a density of 4×10^4 cells/cm^2 in 24-well plates and cultured for 24 h. Either LL37-Au NPs or Au NPs suspended in culture medium at different concentrations (25, 50, 100 and 200 μg/mL) were added to cells and left for 5 h and 48 h. Before the treatment ended, cells were dosed with 100 μM of 6-carboxy-2′,7′-dichlorodihydrofluorescein diacetate (DCFH-DA), a dye commonly used to measure intracellular changes in ROS, for 1 hour. After washing the cells twice, they were trypsinized, centrifuged and resuspended in PBS to proceed with flow cytometry analysis (FACS Canto II, BD Biosciences). 1 mM H2O2 was used as a positive control for ROS production. In addition, propidium iodide (PI) (1 μg/mL final concentration) was used to quantify cell viability and to exclude the dead cells (i.e. PI positive cells) from the DCFH analysis.
# [4] = test system: chorioallantoic membrane (CAM); assay: Chorioallantoic membrane (CAM) assay; format: in vivo; conditions: CAM vs vehicle
# Protocol: In an embodiment, the evaluation of the pro-angiogenic properties of LL37-Au NPs. […] The formation of new blood vessels is a prerequisite of tissue repair and wound healing. Therefore, it was evaluated the inductive properties of LL37 and LL37-Au NPs on human umbilical vein endothelial cells (HUVECs) to secrete vascular endothelial growth factor (VEGF165) (FIG. 14b). […] Next, the assessment of the pro-angiogenic activity of LL37 and LL37-Au NPs in a chorioallantoic membrane (CAM) assay was made.
smiles,measurement,setting,value
CC[C@H](C)[C@H](NC(=O)[C@H](CCCCN)NC(=O)[C@H](CCC(=O)O)NC(=O)[C@H](CCCCN)NC(=O)[C@H](CO)NC(=O)[C@H](CCCCN)NC(=O)[C@H](CCCNC(=N)N)NC(=O)[C@H](Cc1ccccc1)NC(=O)[C@H](Cc1ccccc1)NC(=O)[C@H](CC(=O)O)NC(=O)CNC(=O)[C@H](CC(C)C)NC(=O)[C@@H](N)CC(C)C)C(=O)NCC(=O)N[C@@H](CCCCN)C(=O)N[C@@H](CCC(=O)O)C(=O)N[C@@H](Cc1ccccc1)C(=O)N[C@@H](CCCCN)C(=O)N[C@@H](CCCNC(=N)N)C(=O)N[C@H](C(=O)N[C@H](C(=O)N[C@@H](CCC(N)=O)C(=O)N[C@@H](CCCNC(=N)N)C(=O)N[C@H](C(=O)N[C@@H](CCCCN)C(=O)N[C@@H](CC(=O)O)C(=O)N[C@@H](Cc1ccccc1)C(=O)N[C@@H](CC(C)C)C(=O)N[C@@H](CCCNC(=N)N)C(=O)N[C@@H](CC(N)=O)C(=O)N[C@@H](CC(C)C)C(=O)N[C@H](C(=O)N1CCC[C@H]1C(=O)N[C@@H](CCCNC(=N)N)C(=O)N[C@H](C(=O)N[C@@H](CCC(=O)O)C(=O)N[C@@H](CO)C(=O)N[C@@H](CS)C(N)=O)[C@@H](C)O)C(C)C)[C@@H](C)CC)C(C)C)[C@@H](C)CC [LL37],effect of apyrase on charge transfer / inward current,[1]; apyrase 20 U/mL,no decrease
same,inward current,[1]; holding potential −70 mV,elicited an inward current
same,time of peak ERK1/2 phosphorylation,[2],4 min
same,concentration showing cytotoxic effect,[3],10000 ng/mL
same,"concentration up to which no significant change in cell viability, ATP production, ROS",[3]; 5 and 48 h,≤ 30000 ng/mL
same,concentration at which significant cell death and ROS production were observed,[3]; 48 h,30000 ng/mL
same,pro-angiogenic activity (vessel growth),[4],induced vessel growth
